Experimental data published in US8030335B2, “Use of liver X receptor agonists” (Laboratoires Fournier S.A., priority 2005, dated 2011).

How the values were obtained:
NOD mice = test: Regeneration of beta cells in NOD mice (pancreatic histology); assay type: in vivo, mouse; details: NOD mice of 4 weeks old, 50 mg/kg for 4 weeks (5 days/7)
Text: NOD (non-obese diabetes) mice is an experimental model of spontaneous resembling human Type I (insulin-dependent) diabetes, which results from the progressive islet invasion and beta cells destruction by autoreactive T cells. This spontaneous diabetes model offers a unique opportunity of studying the autoreactive T cells involved in the process of beta cell destruction and of settling preventive strategies before clinical onset of the disease. Non fasted mice were killed two days after the last administration of compounds. Pancreatic glands were excised and processed for conventional histological studies after fixation in Bouin's alcoholic solution. Five μm sections were stained with haematoxylin-eosin as described previously by Thivolet C. H. et al., 1991, Diabetologia, 34, 314-319. NOD mice of 4 weeks old have been treated for 4 weeks (5 days/7) with vehicle or GW3965 at 50 mg/kg. Pancreatic histological studies have been carried out as described above.

[1] = tested on: male Zucker Diabetic Fatty fa/fa (ZDF) rat; test: Plasma glucose in ZDF rats during and after 3 weeks of oral treatment; assay type: in vivo
Text: The male Zucker Diabetic Fatty fa/fa (ZDF) rat is a model of Type II diabetes. The rats are insulin resistant but normoglycemic from birth and they develop diabetes from about week 7 to week 10 of age. During the transitional period, the animals go through a state of impaired glucose tolerance. Although the animals are hyperinsulinemic before diabetes onset and during the early stages of diabetes, they later lose glucose-stimulated insulin secretion and finally become almost completely insulinopenic. Male ZDF fa/fa and ZDF fa+ rats were obtained from Genetic Models (Indianapolis, Ind.), at the age of 6 weeks and used in the experiments at 12 weeks of age, after 3 weeks of oral treatment with vehicle or GW3965 (10 mg/kg). Compounds were given once daily (at 17 h) via oral gavage. At the time of their use, the ZDF fa/fa rats weighed 310-350 g, whereas the age-matched ZDF fa+ rats weighed 245-285 g. ZDF fa+ and ZDF fa/fa animals had free access to diabetogenic chow (Purina 5008). Animals were housed 5 per cage in a temperature and humidity-controlled room with a 12/12-h light-dark cycle. Blood samples were taken 16 h after compound administration via the tail vein and measured on a Konelab 300 (Labsystem) clinical chemistry analyzer. At the beginning of the study, glycemia was similar in vehicle- and GW3965-treated ZDF rats.

[2] = tested on: isolated pancreatic islets; test: Glucose-stimulated insulin secretion in pancreatic islets isolated from treated ZDF rats; assay type: in vivo, rat; details: islets of ZDF rats treated 10 mg/kg oral for 3 weeks
Description: Male ZDF fa/fa and ZDF fa+ rats were obtained from Genetic Models (Indianapolis, Ind.), at the age of 6 weeks and used in the experiments at 12 weeks of age, after 3 weeks of oral treatment with vehicle or GW3965 (10 mg/kg). Compounds were given once daily (at 17 h) via oral gavage. At the time of their use, the ZDF fa/fa rats weighed 310-350 g, whereas the age-matched ZDF fa+ rats weighed 245-285 g. ZDF fa+ and ZDF fa/fa animals had free access to diabetogenic chow (Purina 5008). Animals were housed 5 per cage in a temperature and humidity-controlled room with a 12/12-h light-dark cycle. Blood samples were taken 16 h after compound administration via the tail vein and measured on a Konelab 300 (Labsystem) clinical chemistry analyzer. Rat pancreatic islets were prepared by collagenase digestion and density gradient purification. The enzyme collagenase type XI (Sigma Chemical, St. Louis, Mo.) was used for digestion of the pancreas. After an overnight fast, animals were deeply anesthetized and killed. Then, the pancreatic duct was cannulated, and 20 ml of the digestion solution at 37° C. […] Insulin content was measured in the same islets after an overnight alcohol-acid extraction (Ethanol 75%+HCl 0.15 N). Insulin concentrations in the different media were determined by rat insulin ELISA test (Insulin Rat Elite plus, MERCODIA).

For `O=C(O)Cc1cccc(OCCCN(Cc2cccc(C(F)(F)F)c2Cl)CC(c2ccccc2)c2ccccc2)c1` [GW3965], the “regeneration of beta cells (formation of new islets)” value (NOD mice) was “formation of new islets”, the “plasma glucose (glycemia) during treatment” value ([1]; 10 mg/kg oral once daily, day 6 to day 21, vs vehicle) was “significantly prevented this rise and maintained glycemia at low level” and the “glycemia and HbA1c” value ([1]; after 21 days of treatment) was “significant decrease”. The “glycemia after the end of treatment” value ([1]; day 44, no treatment from day 21, previously 10 mg/kg oral for 3 weeks) was “still significantly reduced”, the “increase of insulin secretion vs vehicle-treated ZDF rat islets” value ([2]; 3.3 mmol/l glucose) was 133.8% and the “increase of insulin secretion vs vehicle-treated ZDF rat islets” value ([2]; 16.7 mmol/l glucose) was 74.5%.
